Measurements reported in patent US4910216A, “2-(3,5-dimethyl-4-hydroxyphenyl)indole derivatives” (Teikoku Hormone Mfg. Co., Ltd., priority 1988, dated 1990).

Legend:
lipoxygenase [1] = conditions: known inhibitors; cited from earlier work
cyclooxygenase = conditions: known inhibitors; cited from earlier work
lipoxygenase [2] = assay: Inhibition of leukotriene formation (LTC4, LTD4, LTE4 in pleural exudate, HPLC) in A23187-induced pleurisy, oral administration; type: in vivo, rats (Wistar-strain, male); conditions: rat pleural exudate, 3 mg/kg p.o., 60 minutes before intrapleural A23187
Description: (1) Preparation of A23187 -induced pleurisy
Under ether anaesthesia, 0.2 ml of 100,μM […] (prepared by adding injectable distilled water in a 2mM A23187 ethanol solution) was administered intrapleurally to rats (Wistar-strain, male, 11 weeks old). Twenty minutes after the administration, the rats were exsanguinated and the pleural exudate was harvested. The test compound was suspended or dissolved in a 0.5% carboxymethyl cellulose solution containing 2% Tween, and orally administered to the animals 60 minutes before the intrapleural administration of A23187.
(2) Measurement of the leukotrienes [LTC4, LTD4 and LTE4 ]
To the exudate obtained in (1) was added 4 times its volume of ice-cooled ethanol. They were well mixed, and then centrifuged. The supernatant was concentrated under reduced pressure, and 1.0 ml of 0.01M acetate buffer (pH 5.9) was added to the residue. The solution was added to SEP-PAK® (C18) and leukotrienes were partially purified. Fractions eluted with 5 ml of 60% ethanol/0.01M acetate buffer (pH 5.9) were collected, and the solvent was evaporated under reduced pressure.
The residue was dissolved in 1 ml of methanol, and the solution was filtered on a filter having a pore size of 0.45 microns, and evaporated under reduced pressure. The residue was dissolved in the mobile phase (acetonitrile/water/acetic acid/triethylamine, 35/63.5/1.5/2.2) used in high performance liquid chromatography (HPLC) and subjected to analysis by HPLC. A calibration curve was obtained by a fixed amount of PGB2 as an internal standard substance and standard LTC4, LTD4 and LTE4 were added to a buffer, followed by the same extraction, partial purification and HPLC analysis as above. The amounts of the leukotrienes in the sample were calculated from the calibration curve.
The activity of 2-(4-hydroxy-3,5-dimethylphenyl)-5-methoxy-3-methylindole (compound A) which is disclosed in Example 1 of U.S. Pat. No. 4,695,381 and was selected as an active control is also shown below.

Row | Compound | lipoxygenase inhibition (lipoxygenase [1]) | cyclooxygenase inhibition (lack of specificity) (cyclooxygenase) | percent inhibition of LTC4 + LTD4 + LTE4 (lipoxygenase [2]) [%] | LTC4 + LTD4 + LTE4 (lipoxygenase [2]; mean ± S.E.M., vehicle 414.82 ± 49.81 ng) [ng]
1 | CCCCCC#CCC#CCC#CCC#CCCCC(=O)O [5,8,11,14-eicosatetraynoic acid] | inhibit not only lipoxygenase | lack specificity and inhibit not only lipoxygenase but also cyclooxygenase |  | 
2 | NC1=NN(c2cccc(C(F)(F)F)c2)CC1 [BW755C, 3-amino-1-(3-trifluoromethylphenyl)-2-pyrazoline] | inhibit not only lipoxygenase | lack specificity and inhibit not only lipoxygenase but also cyclooxygenase |  | 
3 | COc1ccc2[nH]c(-c3cc(C)c(O)c(C)c3)c(C)c2c1 [Compound A, 2-(4-hydroxy-3,5-dimethylphenyl)-5-methoxy-3-methylindole] |  |  | 32.0 | 
4 | COc1ccc2[nH]c(-c3cc(C)c(OC(=O)CCC(=O)O)c(C)c3)c(C)c2c1 [Example 1] |  |  | 53.4 | 193.30 ± 28.37
